Data as given in ChEMBL document CHEMBL3407372, “Photodynamic effects induced by meso-tris(pentafluorophenyl)corrole and its cyclodextrin conjugates on cytoskeletal components of HeLa cells” (Eur J Med Chem, 2015).
Activity calls are given as the source filed them. No cut-off for these calls is given here.

Columns and labels:
HeLa [1] = experiment: Phototoxicity against human HeLa cells assessed as lethality rate at 1x10'-5 M incubated 24 hrs under 3 J/cm'2 red light with irradiance of 5 mW/cm'2 by MTT assay; format: functional; conditions: light or radiation study
HeLa [2] = experiment: Cytotoxicity against human HeLa cells assessed as survival fraction at 1x10'-5 M incubated 24 hrs in dark by MTT assay; format: functional; conditions: read-out: Survival
HeLa [3] = experiment: Phototoxicity against human HeLa cells assessed as survival fraction at 1x10'-5 M incubated 24 hrs under 12 J/cm'2 red light with irradiance of 5 mW/cm'2 by MTT assay; format: functional; conditions: light or radiation study, read-out: Survival
HeLa [4] = experiment: Phototoxicity against human HeLa cells assessed as survival fraction at 1x10'-5 M incubated 24 hrs under 3 J/cm'2 red light with irradiance of 5 mW/cm'2 by MTT assay; format: functional; conditions: light or radiation study, read-out: Survival
HeLa [5] = experiment: Drug uptake in human HeLa cells assessed as nucleus at 1x10'-5 M incubated 24 hrs by red emission under fluorescence microscopy; format: ADME, cell-based; conditions: 10 µM
HeLa [6] = experiment: Drug uptake in human HeLa cells assessed as golgi apparatus at 1x10'-5 M incubated 24 hrs by mitotracker green; format: ADME, cell-based; conditions: 10 µM
HeLa [7] = experiment: Phototoxicity against human HeLa cells assessed as survival fraction at 1x10'-5 M incubated 24 hrs under 6 J/cm'2 red light with irradiance of 5 mW/cm'2 by MTT assay; format: functional; conditions: light or radiation study, read-out: Survival
HeLa [8] = experiment: Phototoxicity against human HeLa cells assessed as lethality rate at 1x10'-5 M incubated 24 hrs under 6 J/cm'2 red light with irradiance of 5 mW/cm'2 by MTT assay; format: functional
HeLa [9] = experiment: Phototoxicity against human HeLa cells assessed as survival fraction at 1x10'-5 M incubated 24 hrs under 9 J/cm'2 red light with irradiance of 5 mW/cm'2 by MTT assay; format: functional; conditions: light or radiation study, read-out: Survival
HeLa [10] = experiment: Cytotoxicity against human HeLa cells assessed as survival fraction at 1x10'-7 M incubated 24 hrs in dark by MTT assay; format: functional; conditions: read-out: Survival
HeLa [11] = experiment: Phototoxicity against human HeLa cells assessed as survival fraction at 1x10'-7 M incubated 24 hrs under 6 J/cm'2 red light with irradiance of 5 mW/cm'2 by MTT assay; format: functional; conditions: light or radiation study, read-out: Survival
HeLa [12] = experiment: Phototoxicity against human HeLa cells assessed as survival fraction at 1x10'-7 M incubated 24 hrs under 3 J/cm'2 red light with irradiance of 5 mW/cm'2 by MTT assay; format: functional; conditions: light or radiation study, read-out: Survival
HeLa [13] = experiment: Phototoxicity against human HeLa cells assessed as changes in microtubular organization at LD20 concentration incubated 24 hrs under 12 J/cm'2 red light with irradiance of 5 mW/cm'2 by immunofluorescence staining; format: functional, cell-based
HeLa [14] = experiment: Phototoxicity against human HeLa cells assessed as survival fraction at 1x10'-7 M incubated 24 hrs under 9 J/cm'2 red light with irradiance of 5 mW/cm'2 by MTT assay; format: functional; conditions: light or radiation study, read-out: Survival
HeLa [15] = experiment: Phototoxicity against human HeLa cells assessed as abnormalities in chromosome disposition in metaphase plate at LD20 concentration incubated 24 hrs under 12 J/cm'2 red light with irradiance of 5 mW/cm'2 by immunofluorescence staining; format: functional, cell-based
HeLa [16] = experiment: Phototoxicity against human HeLa cells assessed as survival fraction at 1x10'-4 M incubated 24 hrs under 6 J/cm'2 red light with irradiance of 5 mW/cm'2 by MTT assay; format: functional; conditions: light or radiation study, read-out: Survival
HeLa [17] = experiment: Cytotoxicity against human HeLa cells assessed as survival fraction at 1x10'-4 M incubated 24 hrs in dark by MTT assay; format: functional; conditions: read-out: Survival
HeLa [18] = experiment: Phototoxicity against human HeLa cells assessed as survival fraction at 1x10'-4 M incubated 24 hrs under 12 J/cm'2 red light with irradiance of 5 mW/cm'2 by MTT assay; format: functional; conditions: light or radiation study, read-out: Survival
HeLa [19] = experiment: Phototoxicity against human HeLa cells assessed as survival fraction at 1x10'-4 M incubated 24 hrs under 9 J/cm'2 red light with irradiance of 5 mW/cm'2 by MTT assay; format: functional; conditions: light or radiation study, read-out: Survival
HeLa [20] = experiment: Drug uptake in human HeLa cells assessed as located in cytoplasm at 1x10'-5 M incubated 24 hrs by red emission under fluorescence microscopy; format: ADME, cell-based; conditions: 10 µM
HeLa [21] = experiment: Phototoxicity against human HeLa cells assessed as lethality rate at 1x10'-5 M incubated 24 hrs under 9 J/cm'2 red light with irradiance of 5 mW/cm'2 by MTT assay; format: functional
HeLa [22] = experiment: Phototoxicity against human HeLa cells assessed as abnormalities in chromosome disposition in metaphase plate at LD70 concentration incubated 24 hrs under 12 J/cm'2 red light with irradiance of 5 mW/cm'2 by immunofluorescence staining; format: functional, cell-based
HeLa [23] = experiment: Drug uptake in human HeLa cells assessed as located in granules at 1x10'-5 M incubated 24 hrs by red emission under fluorescence microscopy; format: ADME, cell-based; conditions: 10 µM
HeLa [24] = experiment: Drug uptake in human HeLa cells assessed as filamentous pattern of mitochondria at 1x10'-5 M incubated 24 hrs by mitotracker green; format: ADME, cell-based; conditions: 10 µM
HeLa [25] = experiment: Drug uptake in human HeLa cells assessed as juxtanuclear portion at 1x10'-5 M incubated 24 hrs by ceramide; format: ADME, cell-based; conditions: 10 µM
HeLa [26] = experiment: Phototoxicity against human HeLa cells assessed as changes in microtubular organization at LD70 concentration incubated 24 hrs under 12 J/cm'2 red light with irradiance of 5 mW/cm'2 by immunofluorescence staining; format: functional, cell-based
HeLa [27] = experiment: Drug uptake in human HeLa cells assessed as lysosomes at 1x10'-5 M incubated 24 hrs by acridine orange staining; format: ADME, cell-based; conditions: 10 µM

Q: For `OC[C@H]1O[C@@H]2O[C@H]3O[C@H](COc4c(F)c(F)c(-c5c6ccc([nH]6)c(-c6c(F)c(F)c(F)c(F)c6F)c6nc(c(-c7c(F)c(F)c(F)c(F)c7F)c7ccc([nH]7)c7ccc5[nH]7)C=C6)c(F)c4F)[C@@H](O[C@H]4[C@H](O)[C@@H](O)[C@@H](O[C@H]5[C@H](O)[C@@H](O)[C@@H](O[C@H]6[C@H](O)[C@@H](O)[C@@H](O[C@H]7[C@@H](O)[C@@H](O)[C@@H](O[C@H]8[C@H](O)[C@@H](O)[C@@H](O[C@H]1[C@H](O)[C@H]2O)O[C@@H]8CO)O[C@@H]7CO)O[C@@H]6CO)O[C@@H]5CO)O[C@@H]4CO)[C@H](O)[C@H]3O`, which inhibition at 10 µM (HeLa [1]) is on record?
A: 20%

Q: And the viability at 10 µM (HeLa [2])?
A: 162%

Q: What about the viability at 10 µM (HeLa [3]) of the same compound?
A: 81.6%

Q: And the viability at 10 µM (HeLa [4])?
A: 93.6%

Q: And the Drug uptake (HeLa [5])?
A: Active

Q: And the Drug uptake (HeLa [6])?
A: Active

Q: What about the viability at 10 µM (HeLa [7]) of the same compound?
A: 95.6%

Q: And the Activity (HeLa [8])?
A: 22%

Q: And the viability at 10 µM (HeLa [9])?
A: 81.6%

Q: And the viability at 0.1 µM (HeLa [10])?
A: 113%

Q: And the viability at 0.1 µM (HeLa [11])?
A: 80.2%

Q: And the viability at 0.1 µM (HeLa [12])?
A: 92%

Q: And the Activity (HeLa [13])?
A: Active

Q: And the viability at 0.1 µM (HeLa [14])?
A: 90.1%

Q: What about the Activity (HeLa [15]) of the same compound?
A: Active

Q: `OC[C@H]1O[C@@H]2O[C@H]3O[C@H](COc4c(F)c(F)c(-c5c6nc(c(-c7c(F)c(F)c(F)c(F)c7F)c7ccc([nH]7)c(-c7c(F)c(F)c(OC[C@H]8O[C@@H]9O[C@H]%10O[C@H](CO)[C@@H](O[C@H]%11O[C@H](CO)[C@@H](O[C@H]%12O[C@H](CO)[C@@H](O[C@H]%13O[C@H](CO)[C@@H](O[C@H]%14O[C@H](CO)[C@@H](O[C@H]%15O[C@H](CO)[C@@H](O[C@H]8[C@H](O)[C@H]9O)[C@H](O)[C@H]%15O)[C@H](O)[C@H]%14O)[C@H](O)[C@H]%13O)[C@@H](O)[C@H]%12O)[C@H](O)[C@H]%11O)[C@H](O)[C@H]%10O)c(F)c7F)c7ccc([nH]7)c7ccc5[nH]7)C=C6)c(F)c4F)[C@@H](O[C@H]4[C@H](O)[C@@H](O)[C@@H](O[C@H]5[C@H](O)[C@@H](O)[C@@H](O[C@H]6[C@H](O)[C@@H](O)[C@@H](O[C@H]7[C@@H](O)[C@@H](O)[C@@H](O[C@H]8[C@H](O)[C@@H](O)[C@@H](O[C@H]1[C@H](O)[C@H]2O)O[C@@H]8CO)O[C@@H]7CO)O[C@@H]6CO)O[C@@H]5CO)O[C@@H]4CO)[C@H](O)[C@H]3O` was tested. Which viability at 100 µM (HeLa [16]) did it give?
A: 86%

Q: And the viability at 100 µM (HeLa [17])?
A: 86%

Q: And the viability at 10 µM (HeLa [2])?
A: 121%

Q: What about the viability at 100 µM (HeLa [18]) of the same compound?
A: 57.6%

Q: And the viability at 10 µM (HeLa [3])?
A: 57.6%

Q: What about the viability at 10 µM (HeLa [7]) of the same compound?
A: 121%

Q: What about the viability at 100 µM (HeLa [19]) of the same compound?
A: 85%

Q: What about the viability at 10 µM (HeLa [9]) of the same compound?
A: 111%

Q: What does the source list for `Fc1c(F)c(F)c(-c2c3nc(c(-c4c(F)c(F)c(F)c(F)c4F)c4ccc([nH]4)c4ccc([nH]4)c(-c4c(F)c(F)c(F)c(F)c4F)c4ccc2[nH]4)C=C3)c(F)c1F`?
A: viability at 100 µM (HeLa [17]): 117%; viability at 10 µM (HeLa [2]): 108%; viability at 10 µM (HeLa [3]): 38.5%; viability at 10 µM (HeLa [4]): 104%; Drug uptake (HeLa [20]): Active; Activity (HeLa [21]): 70%; viability at 10 µM (HeLa [7]): 80.9%; Activity (HeLa [22]): Active; Drug uptake (HeLa [23]): Active; viability at 10 µM (HeLa [9]): 44.5%; Drug uptake (HeLa [24]): Active; Drug uptake (HeLa [25]): Active; Activity (HeLa [26]): Active; Drug uptake (HeLa [27]): Active
